Laboratory results: article PMC11930985 (Nature Communications, 2025)

Tests used:
[1] = test system: human lymphocytes; parameters: method as in Investigator's Brochure (IB) version 5.0; settings: ref Investigator's Brochure (IB) version 5.0; cited from earlier work
[2] = parameters: method as in Protocol BGBC001; settings: ref Protocol BGBC001, cited from earlier work
[3] = biological target: Flt4; parameters: method as in Investigator's Brochure (IB) version 5.0; settings: ref Investigator's Brochure (IB) version 5.0; cited from earlier work
[4] = test system: AML cell lines; parameters: method as in Investigator's Brochure (IB) version 5.0; settings: ref Investigator's Brochure (IB) version 5.0, cited from earlier work
[5] = test system: Flt4; parameters: method as in Investigator's Brochure (IB) version 5.0; settings: ref Investigator's Brochure (IB) version 5.0; cited from earlier work; remark: listed apart in the source
[6] = test system: Yes; parameters: method as in Investigator's Brochure (IB) version 5.0; settings: ref Investigator's Brochure (IB) version 5.0; cited from earlier work
[7] = test system: healthy male subjects; parameters: method as in Protocol BGBC001; settings: ref Protocol BGBC001; cited from earlier work
[8] = test system: monkeys; parameters: method as in Investigator's Brochure (IB) version 5.0; settings: 28-day repeat dose; ref Investigator's Brochure (IB) version 5.0; cited from earlier work
[9] = biological target: Flt1; parameters: method as in Investigator's Brochure (IB) version 5.0; settings: ref Investigator's Brochure (IB) version 5.0; cited from earlier work
[10] = test system: MD V 4-11 xenograft; parameters: method as in Investigator's Brochure (IB) version 5.0; settings: ref Investigator's Brochure (IB) version 5.0, cited from earlier work
[11] = test system: CYP3A4/5; parameters: method as in Investigator's Brochure (IB) version 5.0; settings: ref Investigator's Brochure (IB) version 5.0; cited from earlier work
[12] = test system: AML/MDS patients; test: Response assessment (ELN AML / modified IWG MDS criteria): ORR, DCR; assay type: in vivo, human
Procedure: All patients underwent baseline disease assessments at screening (peripheral blood and bone marrow (BM)). Efficacy was assessed according to the blast percentage in a peripheral blood and BM aspirate sample, measurement of absolute neutrophil count, measurement of platelet count, and red cell transfusion requirement according to the European LeukemiaNet[37] response criteria for AML and the modified IWG response criteria for MDS[38]. Response criteria used are summarized in Supplementary Table 4.
Response assessments (peripheral blood and BM) were performed at Cycle 2 Day 1 (pre-dose), Cycle 4 Day 1 (pre-dose) and repeated every 3 cycles thereafter or when clinically indicated. Patients who completed 12 months of study treatment and had not experienced progressive disease (PD) underwent response assessment every 5 cycles until PD was confirmed. Efficacy endpoints were: Objective response rate (ORR), defined as the number of patients with CR, CRi, MLFS, MR or PR divided by the total number of patients in the cohort/group; Disease control rate (DCR), defined as the number of patients with CR, CRi, MLFS, MR, PR or unchanged disease for at least three cycles (considered to have stable disease (SD)) divided by the total number of patients in the cohort/group; Overall survival (OS), defined as (date of death or censoring) – (date of the first study treatment) +1. Censoring date was the last date the patient was known to be alive; Event free survival (EFS), defined as (earliest of date of death, date of progression or date of censoring) – (date of the first study treatment) +1, with event defined as death or progression. Patients who started a new anti-cancer treatment before documented progression were censored at the date of the last assessment prior to start of non-protocol treatment. […] Patients who were alive without documented progression on the last day of contact were censored at the date of the last assessment.

[13] = test system: Hoxa9/Meis1 leukemia; parameters: method as in Ben-Batalla et al., 2013; settings: ref Ben-Batalla et al., 2013; cited from earlier work
[14] = test system: hERG channel; parameters: method as in Investigator's Brochure (IB) version 5.0; settings: ref Investigator's Brochure (IB) version 5.0; cited from earlier work

Nc1nc(Nc2ccc3c(c2)CC[C@@H](N2CCCC2)CC3)nn1-c1cc2c(nn1)-c1ccccc1CCC2 [Bemcentinib]
In vitro mammalian cell cytogenetic study result [1]: negative | t1/2 ([2]; single oral dose, healthy subjects): > 24 h | Estimated increase in exposure with food in some subjects ([2]; whole milk and buttered toast): up to two | Kd [3]: 460 nM | Effect when administered with cytarabine (Ara-C) ([4]; preliminary studies): at least additive | Effect of exposure in AML cell lines ([4]; with G1 arrest, reduced phosphorylated axl and ERK): exposure-induced differentiation | IC50 [5]: 41 nM | IC50 [6]: 43 nM | Maximum QTcF recorded (severity) [7]: Grade I | Target organs [8]: liver, reticuloendothelial system and haematopoietic system | Kd [9]: 400 nM | Reduction in tumor burden ([10]; oral treatment): dose-dependent | Axl and ERK phosphorylation levels [10]: dose-dependent reduction | Substrate and time-dependent inhibition of CYP3A4/5 activity [11]: modest | CR ([12]; DE 200/100 mg, N=4): 0 n (%) | CRi ([12]; DE 200/100 mg, N=4): 0 n (%) | MLFS ([12]; DE 200/100 mg, N=4): 0 n (%) | MR (marrow response) ([12]; DE 200/100 mg, N=4): 0 n (%) | NE (not evaluable) ([12]; DE 200/100 mg, N=4): 1 (25%) n (%) | Non-Responder ([12]; DE 200/100 mg, N=4): 4 (100%) n (%) | PD (progressive disease) ([12]; DE 200/100 mg, N=4): 1 (25%) n (%) | PR ([12]; DE 200/100 mg, N=4): 0 n (%) | Responder ([12]; DE 200/100 mg, N=4): 0 (0%) n (%) | UC (unchanged) ([12]; DE 200/100 mg, N=4): 1 (25%) n (%) | CR ([12]; DE 400/100 mg, N=6): 0 n (%) | CRi ([12]; DE 400/100 mg, N=6): 0 n (%) | MLFS ([12]; DE 400/100 mg, N=6): 0 n (%) | MR (marrow response) ([12]; DE 400/100 mg, N=6): 1 (17%) n (%) | NE (not evaluable) ([12]; DE 400/100 mg, N=6): 0 n (%) | Non-Responder ([12]; DE 400/100 mg, N=6): 5 (83%) n (%) | PD (progressive disease) ([12]; DE 400/100 mg, N=6): 0 n (%) | PR ([12]; DE 400/100 mg, N=6): 0 n (%) | Responder ([12]; DE 400/100 mg, N=6): 1 (17%) n (%) | UC (unchanged) ([12]; DE 400/100 mg, N=6): 3 (50%) n (%) | CR ([12]; DE 400/200 mg, N=7): 1 (14%) n (%) | CRi ([12]; DE 400/200 mg, N=7): 1 (14%) n (%) | MLFS ([12]; DE 400/200 mg, N=7): 0 n (%) | MR (marrow response) ([12]; DE 400/200 mg, N=7): 0 n (%) | NE (not evaluable) ([12]; DE 400/200 mg, N=7): 1 (14%) n (%) | Non-Responder ([12]; DE 400/200 mg, N=7): 5 (71%) n (%) | PD (progressive disease) ([12]; DE 400/200 mg, N=7): 1 (14%) n (%) | PR ([12]; DE 400/200 mg, N=7): 0 n (%) | Responder ([12]; DE 400/200 mg, N=7): 2 (29%) n (%) | UC (unchanged) ([12]; DE 400/200 mg, N=7): 3 (43%) n (%) | CR ([12]; DE 600/200 mg, N=14): 0 n (%) | CRi ([12]; DE 600/200 mg, N=14): 1 (7%) n (%) | MLFS ([12]; DE 600/200 mg, N=14): 1 (7%) n (%) | MR (marrow response) ([12]; DE 600/200 mg, N=14): 0 n (%) | NE (not evaluable) ([12]; DE 600/200 mg, N=14): 4 (29%) n (%) | Non-Responder ([12]; DE 600/200 mg, N=14): 12 (86%) n (%) | PD (progressive disease) ([12]; DE 600/200 mg, N=14): 3 (21%) n (%) | PR ([12]; DE 600/200 mg, N=14): 0 n (%) | Responder ([12]; DE 600/200 mg, N=14): 2 (14%) n (%) | UC (unchanged) ([12]; DE 600/200 mg, N=14): 4 (29%) n (%) | CR ([12]; DE 900/300 mg, N=5): 0 n (%) | CRi ([12]; DE 900/300 mg, N=5): 0 n (%) | MLFS ([12]; DE 900/300 mg, N=5): 0 n (%) | MR (marrow response) ([12]; DE 900/300 mg, N=5): 0 n (%) | NE (not evaluable) ([12]; DE 900/300 mg, N=5): 2 (40%) n (%) | Non-Responder ([12]; DE 900/300 mg, N=5): 5 (100%) n (%) | PD (progressive disease) ([12]; DE 900/300 mg, N=5): 0 n (%) | PR ([12]; DE 900/300 mg, N=5): 0 n (%) | Responder ([12]; DE 900/300 mg, N=5): 0 (0%) n (%) | UC (unchanged) ([12]; DE 900/300 mg, N=5): 2 (40%) n (%) | Median time to objective response ([12]; DE cohort): 22 days | ORR ([12]; DE cohort overall, 36 patients, monotherapy): 14% | ORR ([12]; DE cohort, 400/200 mg dosing group): 29% | CR ([12]; DE overall, N=36): 1 (3%) n (%) | CRi ([12]; DE overall, N=36): 2 (6%) n (%) | MLFS ([12]; DE overall, N=36): 1 (3%) n (%) | MR (marrow response) ([12]; DE overall, N=36): 1 (3%) n (%) | NE (not evaluable) ([12]; DE overall, N=36): 8 (22%) n (%) | Non-Responder ([12]; DE overall, N=36): 31 (86%) n (%) | PD (progressive disease) ([12]; DE overall, N=36): 5 (14%) n (%) | PR ([12]; DE overall, N=36): 0 n (%) | Responder ([12]; DE overall, N=36): 5 (14%) n (%) | UC (unchanged) ([12]; DE overall, N=36): 13 (36%) n (%) | Survival [13]: prolong | IC50 [14]: 530 nM
